Tested on: oxazolone-induced mouse ear swelling
Assay: Inhibition of oxazolone-induced mouse ear swelling (topical inflammation model)
Assay type: in vivo, BALB/c male mice
Details: observations made from Table II
Experimental: Left ears were untreated. The thickness of both ears of each animal was measured with a Dyer model micrometer gauge 24 hours after oxazolone challenge, and the net increase in thickness of right ears versus left ears was calculated for each animal. Percent inhibition was calculated according to the formula: [(Iv−It)/Iv]×100, where Iv and It respectively refer to the average net increase in right ear thickness (mm) for vehicle and candidate compound treated mice.

SMILES: CC(C)c1c(C(=O)Nc2ccccc2)c(-c2ccccc2)c(-c2ccc(F)cc2)n1CC[C@@H]1C[C@@H](O)CC(=O)O1 [Atorvastatin lactone, atorvastatin lactone]
- anti-inflammatory activity in ear swelling assay, comparison in words: most potent anti-inflammatory activity
